19 molecules from patent US8101774B2, “Ester derivatives and medicinal use thereof” (Japan Tobacco Inc., priority 2004, dated 2012) can be followed below.

Bounds are passed on as bounds.

For the experiment, the target named is T1, Microsomal triglyceride transfer protein (MTP) from human small intestine microsome (Homo sapiens, UniProt P55157).
T1 construct: Human small intestine microsome was dialyzed against 10 mM phosphate buffer; tissue Tissue Transforming Technologies, Inc; host or cells: human small intestine microsome
Briefly: Inhibition test of interliposomal triglyceride (TG) transfer activity by MTP. It is filed as biochemical. Conditions: purified MTP from human small intestine microsome, 37° C., 1.5 hours. The essentials: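 DEAE-purified human small intestine MTP (50 μL of 20 μg/mL) incubated 1.5 hours at 37° C with ^14C-triolein donor and unlabelled acceptor SUV liposomes in pH 7.4 Tris buffer with 0.5% BSA. Donor removed on DEAE cellulose; acceptor radioactivity counted, blank-corrected against DMSO control, giving percent inhibition and IC50.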

T1 sequence (P55157 19-894): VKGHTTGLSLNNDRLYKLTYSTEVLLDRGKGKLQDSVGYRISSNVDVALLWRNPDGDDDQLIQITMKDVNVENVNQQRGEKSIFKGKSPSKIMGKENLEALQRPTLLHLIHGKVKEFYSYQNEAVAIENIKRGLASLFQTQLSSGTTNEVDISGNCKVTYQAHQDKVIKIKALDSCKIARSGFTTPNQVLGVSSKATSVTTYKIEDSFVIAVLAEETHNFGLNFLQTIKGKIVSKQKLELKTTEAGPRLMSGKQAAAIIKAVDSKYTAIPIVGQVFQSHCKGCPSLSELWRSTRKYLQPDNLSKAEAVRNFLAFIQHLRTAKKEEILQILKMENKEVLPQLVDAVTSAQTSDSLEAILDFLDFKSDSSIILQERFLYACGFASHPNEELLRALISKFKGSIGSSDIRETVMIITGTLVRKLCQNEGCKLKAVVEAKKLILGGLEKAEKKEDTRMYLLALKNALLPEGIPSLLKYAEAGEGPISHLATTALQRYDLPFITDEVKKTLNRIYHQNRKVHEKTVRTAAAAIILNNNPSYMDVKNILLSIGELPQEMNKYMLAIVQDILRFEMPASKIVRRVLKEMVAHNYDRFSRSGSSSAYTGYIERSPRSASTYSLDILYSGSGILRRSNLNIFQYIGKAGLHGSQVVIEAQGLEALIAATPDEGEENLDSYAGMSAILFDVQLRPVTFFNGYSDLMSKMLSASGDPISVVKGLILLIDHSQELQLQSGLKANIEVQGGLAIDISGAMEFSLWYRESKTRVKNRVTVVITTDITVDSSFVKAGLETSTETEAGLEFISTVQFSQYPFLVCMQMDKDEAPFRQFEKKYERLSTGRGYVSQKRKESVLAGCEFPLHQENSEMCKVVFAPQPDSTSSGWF
T1 sequence (P07237 18-508 partner): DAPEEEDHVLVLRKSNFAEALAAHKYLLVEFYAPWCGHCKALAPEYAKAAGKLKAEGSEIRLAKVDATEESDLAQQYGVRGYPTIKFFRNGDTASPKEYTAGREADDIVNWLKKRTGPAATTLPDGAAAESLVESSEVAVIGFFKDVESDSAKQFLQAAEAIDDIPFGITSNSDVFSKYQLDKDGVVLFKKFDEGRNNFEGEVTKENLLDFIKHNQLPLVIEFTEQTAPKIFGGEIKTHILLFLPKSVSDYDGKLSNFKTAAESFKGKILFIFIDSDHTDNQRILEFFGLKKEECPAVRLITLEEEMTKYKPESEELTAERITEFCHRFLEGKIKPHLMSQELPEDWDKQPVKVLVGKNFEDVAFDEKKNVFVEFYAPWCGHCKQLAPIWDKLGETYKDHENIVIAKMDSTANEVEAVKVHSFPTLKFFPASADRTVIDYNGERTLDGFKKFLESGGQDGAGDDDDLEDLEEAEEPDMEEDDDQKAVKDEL

Take `CN(C)C(=O)c1cc(CCCC(=O)Oc2ccc(C(=O)OCc3ccncc3)cc2)ccc1NC(=O)c1ccccc1-c1ccc(C(F)(F)F)cc1` [Compound 1-84, 4-[4-(3-dimethylcarbamoyl-4-{(4′-trifluoremethylbiphenyl-2-carbonyl)amino}phenyl)butyryloxy]benzoic acid pyridin-4-ylmethyl ester]: the IC50 was below 10 nM.
With `CN(C)C(=O)COC(=O)c1ccc(OC(=O)CCCc2ccc(NC(=O)c3ccccc3-c3ccc(C(F)(F)F)cc3)c(C(=O)N(C)C)c2)cc1` [Compound 1-85, 4-[4-(3-dimethylcarbamoyl-4-{(4′-trifluoromethylbiphenyl-2-carbonyl)amino}phenyl)butyryloxy]benzoic acid dimethylcarbamoylmethyl ester] the figure was below 10 nM.
As to `COC(=O)COC(=O)c1ccc(OC(=O)CCCc2ccc(NC(=O)c3ccccc3-c3ccc(C(F)(F)F)cc3)c(C(=O)N(C)C)c2)cc1` [Compound 1-86, 4-[4-(3-dimethylcarbamoyl-4-{(4′-trifluoromethylbiphenyl-2-carbonyl)amino}phenyl)butyryloxy]benzoic acid methoxycarbonylmethyl ester], the IC50 was below 10 nM.
With `CN(C)C(=O)c1cc(CCCC(=O)Oc2ccc(C(=O)OCc3cccc(Cl)c3)cc2)ccc1NC(=O)c1ccccc1-c1ccc(C(F)(F)F)cc1` [Compound 1-87, 4-[4-(3-dimethylcarbamoyl-4-{(4′-trifluoromethylbiphenyl-2-carbonyl)amino}phenyl)butyryloxy]benzoic acid 3-chlorobenzyl ester], the IC50 was below 10 nM.
Take `CCC(=O)c1ccc(OC(=O)CCCc2ccc(NC(=O)c3ccccc3-c3ccc(C(F)(F)F)cc3)c(C(=O)N(C)C)c2)cc1` [Compound 1-88, 4-(3-dimethylcarbamoyl-4-{(4′-trifluoromethylbiphenyl-2-carbonyl)amino}phenyl)butyric acid 4-propionylphenyl ester]: the IC50 was below 10 nM.
On to `CN(C)C(=O)c1cc(CCCC(=O)Oc2ccc(C(=O)OCCOCc3ccccc3)cc2)ccc1NC(=O)c1ccccc1-c1ccc(C(F)(F)F)cc1` [Compound 1-89, 4-[4-(3-dimethylcarbamoyl-4-{(4′-trifluoromethylbiphenyl-2-carbonyl)amino}phenyl)butyryloxy]benzoic acid 2-benzyloxyethyl ester], for which the IC50 was below 10 nM.
Consider `CN(C)C(=O)c1cc(CCCC(=O)Oc2ccc(C(=O)OCCCOCc3ccccc3)cc2)ccc1NC(=O)c1ccccc1-c1ccc(C(F)(F)F)cc1` [Compound 1-90, 4-[4-(3-dimethylcarbamoyl-4-{(4′-trifluoromethylbiphenyl-2-carbonyl)amino}phenyl)butyryloxy]benzoic acid 3-benzyloxypropyl ester], for which the IC50 is below 10 nM.
Molecule `CN(C)C(=O)c1cc(CCCC(=O)Oc2ccc(C(=O)OCCN3CCCC3=O)cc2)ccc1NC(=O)c1ccccc1-c1ccc(C(F)(F)F)cc1` [Compound 1-91, 4-[4-(3-dimethylcarbamoyl-4-{(4′-trifluoromethylbiphenyl-2-carbonyl)amino}phenyl)butyryloxy]benzoic acid 2-(2-oxopyrrolidin-1-yl)ethyl ester] yielded an IC50 below 10 nM.
In the case of `CN(C)C(=O)c1cc(CCCC(=O)Oc2ccc(C(=O)OCCCO)cc2)ccc1NC(=O)c1ccccc1-c1ccc(C(F)(F)F)cc1` [Compound 1-92, 4-[4-(3-dimethylcarbamoyl-4-{(4′-trifluoromethylbiphenyl-2-carbonyl)amino}phenyl)butyryloxy]benzoic acid 3-hydroxypropyl ester], the IC50 is below 10 nM.
`CCCC(=O)c1ccc(OC(=O)CCCc2ccc(NC(=O)c3ccccc3-c3ccc(C(F)(F)F)cc3)c(C(=O)N(C)C)c2)cc1` [Compound 1-93, 4-(3-dimethylcarbamoyl-4-{(4′-trifluoromethylbiphenyl-2-carbonyl)amino}phenyl)butyric acid 4-butyrylphenyl ester] came in with an IC50 below 10 nM.
`Cc1ccc(C(=O)Nc2ccc(CCCC(=O)Oc3ccc(C(=O)OCc4cccnc4)cc3)cc2C(=O)N(C)C)c(-c2ccc(C(F)(F)F)cc2)n1` [Compound 1-94, 4-[4-(3-dimethylcarbamoyl-4-{[6-methyl-2-(4-trifluoromethylphenyl)pyridine-3-carbonyl]amino}phenyl)butyryloxy]benzoic acid pyridin-3-ylmethyl ester]: the IC50 is below 10 nM.
With `CN(C)C(=O)c1cc(CCCC(=O)Oc2ccc(-c3nnn(C)n3)cc2)ccc1NC(=O)c1ccccc1-c1ccc(C(F)(F)F)cc1` [Compound 1-95, 4-(3-dimethylcarbamoyl-4-{(4′-trifluoromethylbiphenyl-2-carbonyl)amino}phenyl)butyric acid 4-(2-methyl-2H-tetrazol-5-yl)phenyl ester] the figure was below 10 nM.
In the case of `COc1ccc(COC(=O)c2ccc(OC(=O)CCCc3ccc(NC(=O)c4ccccc4-c4ccc(C(F)(F)F)cc4)c(C(=O)N(C)C)c3)cc2)cc1` [Compound 1-96, 4-[4-(3-dimethylcarbamoyl-4-{(4′-trifluoromethylbiphenyl-2-carbonyl)amino}phenyl)butyryloxy]benzoic acid 4-methoxybenzyl ester], the IC50 is below 10 nM.
In turn, `COc1cccc(COC(=O)c2ccc(OC(=O)CCCc3ccc(NC(=O)c4ccccc4-c4ccc(C(F)(F)F)cc4)c(C(=O)N(C)C)c3)cc2)c1` [Compound 1-97, 4-[4-(3-dimethylcarbamoyl-4-{(4′-trifluoromethylbiphenyl-2-carbonyl)amino}phenyl)butyryloxy]benzoic acid 3-methoxybenzyl ester] yielded an IC50 below 10 nM.
With `CN(C)C(=O)c1cc(CCCC(=O)Oc2ccc(C(=O)OCc3cccs3)cc2)ccc1NC(=O)c1ccccc1-c1ccc(C(F)(F)F)cc1` [Compound 1-98, 4-[4-(3-dimethylcarbamoyl-4-{(4′-trifluoromethylbiphenyl-2-carbonyl)amino}phenyl)butyryloxy]benzoic acid thiophen-2-ylmethyl ester] the figure was below 10 nM.
With `CN(C)C(=O)c1cc(CCCC(=O)Oc2ccc(C(=O)OCc3ccsc3)cc2)ccc1NC(=O)c1ccccc1-c1ccc(C(F)(F)F)cc1` [Compound 1-99, 4-[4-(3-dimethylcarbamoyl-4-{(4′-trifluoromethylbiphenyl-2-carbonyl)amino}phenyl)butyryloxy]benzoic acid thiophen-3-ylmethyl ester] the figure was below 10 nM.
`Cc1cccc(COC(=O)c2ccc(OC(=O)CCCc3ccc(NC(=O)c4ccc(C)nc4-c4ccc(C(F)(F)F)cc4)c(C(=O)N(C)C)c3)cc2)n1` [Compound 1-100, 4-[4-(3-dimethylcarbamoyl-4-{[6-methyl-2-(4-trifluoromethylphenyl)pyridine-3-carbonyl]amino}phenyl)butyryloxy]benzoic acid 6-methylpyridin-2-ylmethyl ester] displayed an IC50 below 10 nM.
In the case of `Cc1cccc(COC(=O)c2ccc(OC(=O)CCCc3ccc(NC(=O)c4ccccc4-c4ccc(C(F)(F)F)cc4)c(C(=O)N(C)C)c3)cc2)n1` [Compound 1-101, 4-[4-(3-dimethylcarbamoyl-4-{(4′-trifluoromethylbiphenyl-2-carbonyl)amino}phenyl)butyryloxy]benzoic acid 6-methylpyridin-2-ylmethyl ester] it was below 10 nM; in that of `CC(C)OC(=O)COC(=O)c1ccc(OC(=O)CCCc2ccc(NC(=O)c3ccccc3-c3ccc(C(F)(F)F)cc3)c(C(=O)N(C)C)c2)cc1` [Compound 1-102], below 10 nM.

One may read the IC50 as the concentration that inhibits the measured activity by half.
